Data: patent US20260191937A1, “AGENTS, COMPOSITIONS AND METHODS FOR MODULATING IMMUNITY” (The University of Queensland, priority 2022, published 2026)

B1: 6PGD: 6-phosphogluconate dehydrogenase ectopically expressed; retroviral Pgd overexpression in BMM; in b299 delivered as mRNA in DMONs (protein)
chain: MAQADIALIGLAVMGQNLILNMNDHGFVVCAFNRTVSKVDDFLANEAKGTKVVGAQSLKDMVSKLKKPRRVILLVKAGQAVDDFIEKLVPLLDTGDIIIDGGNSEYRDTTRRCRDLKAKGILFVGSGVSGGEEGARYGPSLMPGGNKEAWPHIKAIFQAIAAKVGTGEPCCDWVGDEGAGHFVKMVHNGIEYGDMQLICEAYHLMKDVLGMRHEEMAQAFEEWNKTELDSFLIEITANILKYRDTDGKELLPKIRDSAGQKGTGKWTAISALEYGMPVTLIGEAVFARCLSSLKEERVQASQKLKGPKVVQLEGSKKSFLEDIRKALYASKIISYAQGFMLLRQAATEFGWTLNYGGIALMWRGGCIIRSVFLGKIKDAFERNPELQNLLLDDFFKSAVDNCQDSWRRVISTGVQAGIPMPCFTTALSFYDGYRHEMLPANLIQAQRDYFGAHTYELLTKPGEFIHTNWTGHGGSVSSSSYNA
notes: 6-phosphogluconate dehydrogenase ectopically expressed; in b299 delivered as mRNA in DMONs

Legend:
[1] = system: uropathogenic Escherichia coli (UPEC) strain EC958; experiment: Growth of UPEC strain EC958 with or without H2O2 oxidative stress (OD600, 12 h); type: cell-based
Method: FIG. 5 is a graphical representation showing effect of increasing RL5P concentrations on the growth of uropathogenic Escherichia coli (UPEC) strain EC958 under conditions of oxidative stress in the form of 0.8 mM H2O2. (A) EC958 was cultured±H2O2 (0.8 mM) in the presence of the indicated concentrations of RL5P for 12 h, during which growth was assessed (A600 at the indicated time points); (B) Area under the curve analysis for the 12 h period was calculated thereafter and is presented in FIG. 5B. Data are compiled from four independent experiments and are presented as mean±SEM. Each symbol represents a different experiment. Statistical significance for (B) was determined using repeated measure two-way ANOVA followed by non-parametric Kruskal Wallis test followed by Dunn's multiple comparison test (ns—not significant; * p<0.05; **** p<0.0001).
FIG. 6 is a graphical representation showing effect of increasing RL5P concentrations on the growth of UPEC under conditions of oxidative stress in the form of 1 mM H2O2. (A) EC958 was cultured±H2O2 (1 mM) in the presence of the indicated concentrations of RL5P for 12 h, during which growth was assessed (A600 at the indicated time points); (B) EC958 was cultured in the presence of the indicated concentrations of RL5P and the absence of H2O2 for 12 h, during which growth was assessed (A600 at the indicated time points). Data are compiled from four independent experiments and are presented as mean±SEM.
FIG. 7 is a graphical representation showing the effect of RL5P and 6-phosphogluconate (6PG) on the on the growth of UPEC under conditions of oxidative stress in the form of H202. (A) EC958 was cultured±H2O2 (0.8 mM) in the presence of the indicated concentration of RL5P or 6PG for 12 h, during which growth was assessed (A600 at the indicated time points); (B). Each symbol represents a different experiment. Statistical significance for (B) was determined using repeated measure two-way ANOVA followed by non-parametric Kruskal Wallis test followed by Dunn's multiple comparison test (ns—not significant; * p<0.05; **** p<0.0001).
All bacterial strains were cultured at 37° C. on solid or liquid Luria-Bertani (LB) medium. The non-pathogenic E. coli K12 strain MG1655 (Blattner et al., 1997. Science. 277:1453-1462) and EC958, a representative strain of the globally-disseminated multidrug-resistant ST131 clone isolated from the urine of a patient with a urinary tract infection (Totsika et al., 2011, PloS one. 6:e26578-e26578; Petty et al., 2014, Proc Natl Acad Sci USA. 111:5694-5699), were used in this study. […] Bacterial growth was assessed by monitoring OD600 using a POLARstar Omega (BMG Labtech) at 20-30 min intervals.

[2] = system: Human monocyte-derived macrophages (HMDM); experiment: Cytokine release (ELISA) from human monocyte-derived macrophages pre-treated with RL5P; type: cell-based
Method: (§1) FIG. 3 is a graphical representation showing the effect of R5LP treatment of macrophages on the release of cytokines IL-1β and TNF. (A-B) Human monocyte-derived macrophages (HMDM) were pre-treated with ribulose-5-phosphate (RL5P) for 16 h at the indicated concentrations. Nigericin-triggered IL-1β release from LPS-primed cells (A), as well as LPS-induced TNF (B) in culture supernatants were assessed by ELISA. (C-D) BMM were pre-treated for 16 h with RL5P at the indicated concentrations. Nigericin-triggered IL-1β release from LPS-primed cells (C), as well as LPS-induced TNF (D) in culture supernatants were assessed by ELISA. Data were compiled from six independent experiments (or donors) and are presented as mean±S.E.M. Statistical significance was determined using two-way ANOVA followed by Sidak's multiple comparison test (ns—not significant; * p<0.05; ** p<0.01).
(§2) FIG. 4 is a graphical representation showing the effect of R5LP treatment of macrophages on the release of cytokine IL-6. HMDM and BMM were pre-treated with the indicated concentrations of RL5P for 16 h, after which they were either stimulated with LPS (10 ng/mL) or infected with uropathogenic Escherichia coli (UPEC) strain EC958 (MOI 100) for 4 h. Supernatants were then assessed for secreted IL-6 by ELISA. Data were compiled from six independent experiments (or donors) and are presented as mean±SEM. Panel A presents IL-6 release (ng/mL), Panel B present IL-6 release normalized to LPS alone. Statistical significance was determined using repeated measure two-way ANOVA followed by Dunnett's multiple comparison test (A-B) (ns—not significant).
(§3) BMM were generated from indicated strains of mice, as previously described (Das Gupta et al., 2020, Cell Rep. 30:2712-2728.e2718). Bone marrow cells were cultured for 6 days in RPMI-1640 media (Thermo Fisher Scientific) supplemented with 10% FCS, 50 U/mL penicillin, 50 μg/mL streptomycin and 2 mM L-glutamine, in the presence of recombinant human colony-stimulating factor 1 (CSF-1), at either 1×10^4 U/mL (Chiron) or 150 ng/mL (The University of Queensland Protein Expression Facility). On day 6, BMM were harvested and replated at an appropriate density with fresh CSF-1, with cells being used in experiments on the following day. […]
(§4) BMM (5×10^5 cells/mL) or HMDM (5×10^5 cells/mL) were treated as indicated in individual figure legends. Supernatants were collected and assessed for secreted TNF. […] Supernatants were collected and analyzed for levels of IL-1β. […]

[3] = system: bone marrow-derived macrophages (BMM); experiment: Cytokine release (ELISA) from mouse bone marrow-derived macrophages pre-treated with RL5P; type: cell-based
Method: as §1, §2, §3, §4

[4] = system: bone marrow-derived macrophages (BMM); experiment: Retroviral overexpression of Pgd (6PGD) in BMM, cytokines by ELISA; type: cell-based, mouse
Method: FIG. 2 is a graphical representation showing the effect of over expression of the 6PGD gene on the release of cytokines IL-1β, TNF and IL-6. The Pgd gene was retrovirally overexpressed in BMM. Nigericin-triggered IL-1β release from LPS-primed cells (A), as well as LPS-induced TNF (B) and IL-6 (C), in culture supernatants were assessed by ELISA. Data were compiled from five independent experiments and are presented as mean±S.E.M. Statistical significance was determined using two-way ANOVA followed by Sidak's multiple comparison test (ns—not significant; * p<0.05; ** p<0.01).
Retroviral overexpression of target genes in primary macrophages was performed as previously described (Das Gupta et al., 2020, Cell Rep. 30:2712-2728.e2718). Briefly, 2×10^6 PlatE cells were transfected with 40 μg of the respective retroviral expression vectors using Lipofectamine 2000 (Thermo Fisher Scientific). At 24 h post-transfection, media were replaced and cells were incubated at 32° C. for 48 h for optimal virus production. Viral supernatants were filtered through a […] Millex-HV PVDF syringe filter (Merck) and supplemented with 1M HEPES, 10 μg/mL polybrene and CSF-1. Bone marrow progenitors treated with CSF-1 for 2 days were spin-infected (1000 g, 2 h, 35° C.) with viral supernatants in 6-well non-tissue culture plates. The cells were immediately supplemented with complete RPMI media, then incubated at 37° C. for 48 h. At 48 h post-transduction, cells were supplemented with complete RPMI media. On day 6 of macrophage differentiation, adherent cells were collected and plated for subsequent experiments.
BMM (5×10^5 cells/mL) or HMDM (5×10^5 cells/mL) were treated as indicated in individual figure legends. Supernatants were collected and assessed for secreted TNF. To assess secreted IL-1β by ELISA, cells were further treated with Nigericin for 1 h (2 h for HMDMs). Supernatants were collected and analyzed for levels of IL-1β. For experiments comparing macrophages derived from mice of different genotypes, MTT assays were performed in parallel to control for any differences in plating densities.

Molecule | UPEC growth under oxidative stress ([1]; 0.8 mM H2O2) | inducible TNF production (secreted TNF) ([2]; HMDM pre-treated with RL5P for 16 h, ELISA) | Nigericin-triggered IL-1β release from LPS-primed cells ([2]; HMDM pre-treated with RL5P for 16 h, LPS, ELISA) | Suppression of IL-1β production in cells responding to Escherichia coli ([2]; HMDM, E. coli instead of LPS, effect in HMDM reduced to a lesser extent than in BMM) | inducible IL-6 production ([2]; HMDM, RL5P 16 h, then LPS (10 ng/mL) or UPEC EC958 (MOI 100) 4 h, ELISA) | inducible TNF production (secreted TNF) ([3]; BMM pre-treated with RL5P for 16 h, ELISA) | Nigericin-triggered IL-1β release from LPS-primed cells ([3]; BMM pre-treated with RL5P for 16 h, LPS, ELISA) | Suppression of IL-1β production in cells responding to Escherichia coli ([3]; BMM, E. coli instead of LPS) | inducible IL-6 production ([3]; BMM, RL5P 16 h, then LPS (10 ng/mL) or UPEC EC958 (MOI 100) 4 h, ELISA) | UPEC growth under oxidative stress ([1]; 1 mM H2O2) | UPEC growth in the absence of oxidative stress ([1]; no H2O2) | LPS-induced IL-6 [4] | LPS-induced TNF [4] | inducible IL-1β response ([4]; Nigericin-triggered release from LPS-primed cells)
O=C(O)[C@H](O)[C@@H](O)[C@H](O)[C@H](O)COP(=O)(O)O [6PG, 6-phosphogluconate, reference compound] | did not affect UPEC growth | – | – | – | – | – | – | – | – | – | – | – | – | –
O=C(CO)[C@H](O)[C@H](O)COP(=O)([O-])[O][Na+] [RL5P, Disodium [(2R,3R)-2,3,5-trihydroxy-4-oxopentyl]phosphate] | significantly impaired E. coli growth in a dose-dependent manner | dramatically reduced secreted TNF levels | suppressed LPS-inducible IL-1β production | much less pronounced | did not affect inducible IL-6 production | modest | suppressed LPS-inducible IL-1β production | much less pronounced | did not affect inducible IL-6 production | also apparent | did not affect UPEC growth | – | – | –
B1 | – | – | – | – | – | – | – | – | – | – | – | unaffected | significantly reduced LPS-induced TNF | attenuated the inducible IL-1β response
